Source: patent US8192962B2, “Processes for detecting toxic substances” (Daikin Industries, Ltd., priority 2001, dated 2012)

Test system: Genes belonging to other category
Assay: DNA chip mRNA expression in yeast, genes belonging to other category (Table 9)
Format: cell-based, Saccharomyces cerevisiae S288C
Description: Yeast (Saccharomyces cerevisiae S288C (α SUC2mal mel gap2 CUP1)) were incubated at 25° C. on YPD medium (yeast extract 1%, polypepton 2%, glucose 2%). One of toxic chemical substances was added to the cells at logarithmic growth phase, and the cells were further incubated for two hours. Cells were cultured without any chemical substance in the same condition, and were used as control. Concentrations of the chemical substances were defined to inhibit the growth of the yeast but not lead to death.
After completion of the incubation, the culture was centrifuged to collect the cells. To the cells, sodium acetate buffer (50 mM sodium acetate, 10 mM EDTA, 1% SDS) was added, and the mixture was shaken at 65° C. for five minutes, followed by returning to room temperature, and obtaining the supernatant, of which the procedures were repeated two times. To the supernatant, ½ amount of a solution of phenol/chloroform was added, and the mixture was centrifuged to give a supernatant, which was added with an equal amount of chloroform, and the mixture was centrifuged to give a supernatant. To the supernatant, an equal amount of isopropanol containing 0.3 M sodium acetate was added, and the mixture was allowed to stand at room temperature for 30 minutes, after which the mixture was centrifuged to give a sediment of the whole RNAs. Seventy % ethanol was added to the sediment, and the mixture was again centrifuged to give a sediment, which was then dried and dissolved in water. mRNA was isolated from the whole RNAs as followings. In view of the fact that a poly A chain is attached to the 3′ terminus of mRNA, a polynucleotide having a poly T structure which was immobilized on the surface of latex beads was used to trap the mRNA, and then the mRNA was washed and eluted with spine column (Oligotex-dT30<Super>mRNA Purification Kit, Takara). Reverse transcription of the mRNA was conducted with a reverse transcriptase (Super Script II Reverse Transcriptase; catalogue No. 18064-014, GibcoBRL) using fluorescence-labeled nucleotides to give cDNAs that were introduced with Cy3-dUTP or Cy5-dUTP during the reverse transcription.
The labeled cDNAs were dissolved in TE buffer (10mM Tris-HCl/1 mM EDTA, pH8.0), and the solution was dropped on the DNA chip containing the whole genes of yeast (DNA Chip Research Inc. Japan) so that the cDNAs were hybridized on the DNA chip at 65° C. for over 12 hours. The fluoresces intensity of the DNA chip was read with a scanner, and the ratio relative to the fluorescence intensity resulting from the absence of chemical substance was estimated as the following, which is shown in Tables 1 to 9: […]

## CN(C)C(=S)SSC(=S)N(C)C [(10), Tetramethylthiuram disulfide]
Yeast gene YJR058C
  The level of expressed mRNA in the presence of chemical substance/The level of expressed mRNA in the absence of chemical substance: 2.6
Yeast gene YJR086W
  The level of expressed mRNA in the presence of chemical substance/The level of expressed mRNA in the absence of chemical substance: 1.1
Yeast gene YJR110W
  The level of expressed mRNA in the presence of chemical substance/The level of expressed mRNA in the absence of chemical substance: 2.3
Yeast gene YJR123W
  The level of expressed mRNA in the presence of chemical substance/The level of expressed mRNA in the absence of chemical substance: 0.5
Yeast gene YKL007W
  The level of expressed mRNA in the presence of chemical substance/The level of expressed mRNA in the absence of chemical substance: 2.4
Yeast gene YKL008C
  The level of expressed mRNA in the presence of chemical substance/The level of expressed mRNA in the absence of chemical substance: 0.4
Yeast gene YKL013C
  The level of expressed mRNA in the presence of chemical substance/The level of expressed mRNA in the absence of chemical substance: 1.4
Yeast gene YKL039W
  The level of expressed mRNA in the presence of chemical substance/The level of expressed mRNA in the absence of chemical substance: 3.3
Yeast gene YKL041W
  The level of expressed mRNA in the presence of chemical substance/The level of expressed mRNA in the absence of chemical substance: 1.5
Yeast gene YKL079W
  The level of expressed mRNA in the presence of chemical substance/The level of expressed mRNA in the absence of chemical substance: 2.0
Yeast gene YKL096W
  The level of expressed mRNA in the presence of chemical substance/The level of expressed mRNA in the absence of chemical substance: 0.5
Yeast gene YKL117W
  The level of expressed mRNA in the presence of chemical substance/The level of expressed mRNA in the absence of chemical substance: 2.1
Yeast gene YKL139W
  The level of expressed mRNA in the presence of chemical substance/The level of expressed mRNA in the absence of chemical substance: 1.5
Yeast gene YKL165C
  The level of expressed mRNA in the presence of chemical substance/The level of expressed mRNA in the absence of chemical substance: 0.4
Yeast gene YKL171W
  The level of expressed mRNA in the presence of chemical substance/The level of expressed mRNA in the absence of chemical substance: 1.8
Yeast gene YKL193C
  The level of expressed mRNA in the presence of chemical substance/The level of expressed mRNA in the absence of chemical substance: 1.6
Yeast gene YKR014C
  The level of expressed mRNA in the presence of chemical substance/The level of expressed mRNA in the absence of chemical substance: 2.0
Yeast gene YKR098C
  The level of expressed mRNA in the presence of chemical substance/The level of expressed mRNA in the absence of chemical substance: 2.7
Yeast gene YLL050C
  The level of expressed mRNA in the presence of chemical substance/The level of expressed mRNA in the absence of chemical substance: 1.0
Yeast gene YLL051C
  The level of expressed mRNA in the presence of chemical substance/The level of expressed mRNA in the absence of chemical substance: 1.8
Yeast gene YLR120C
  The level of expressed mRNA in the presence of chemical substance/The level of expressed mRNA in the absence of chemical substance: 1.6
Yeast gene YLR121C
  The level of expressed mRNA in the presence of chemical substance/The level of expressed mRNA in the absence of chemical substance: 2.0
Yeast gene YLR136C
  The level of expressed mRNA in the presence of chemical substance/The level of expressed mRNA in the absence of chemical substance: 6.0
Yeast gene YLR178C
  The level of expressed mRNA in the presence of chemical substance/The level of expressed mRNA in the absence of chemical substance: 4.1
Yeast gene YLR200W
  The level of expressed mRNA in the presence of chemical substance/The level of expressed mRNA in the absence of chemical substance: 2.6
Yeast gene YLR250W
  The level of expressed mRNA in the presence of chemical substance/The level of expressed mRNA in the absence of chemical substance: 2.4
Yeast gene YLR266C
  The level of expressed mRNA in the presence of chemical substance/The level of expressed mRNA in the absence of chemical substance: 2.6
Yeast gene YLR327C
  The level of expressed mRNA in the presence of chemical substance/The level of expressed mRNA in the absence of chemical substance: 8.3
Yeast gene YLR340W
  The level of expressed mRNA in the presence of chemical substance/The level of expressed mRNA in the absence of chemical substance: 0.5
Yeast gene YLR356W
  The level of expressed mRNA in the presence of chemical substance/The level of expressed mRNA in the absence of chemical substance: 1.6
Yeast gene YLR362W
  The level of expressed mRNA in the presence of chemical substance/The level of expressed mRNA in the absence of chemical substance: 3.3
Yeast gene YLR391W
  The level of expressed mRNA in the presence of chemical substance/The level of expressed mRNA in the absence of chemical substance: 0.7
Yeast gene YLR423C
  The level of expressed mRNA in the presence of chemical substance/The level of expressed mRNA in the absence of chemical substance: 1.0
Yeast gene YLR429W
  The level of expressed mRNA in the presence of chemical substance/The level of expressed mRNA in the absence of chemical substance: 1.3
Yeast gene YML130C
  The level of expressed mRNA in the presence of chemical substance/The level of expressed mRNA in the absence of chemical substance: 4.2
Yeast gene YMR004W
  The level of expressed mRNA in the presence of chemical substance/The level of expressed mRNA in the absence of chemical substance: 3.4
Yeast gene YMR094W
  The level of expressed mRNA in the presence of chemical substance/The level of expressed mRNA in the absence of chemical substance: 0.9
Yeast gene YMR104C
  The level of expressed mRNA in the presence of chemical substance/The level of expressed mRNA in the absence of chemical substance: 3.2
Yeast gene YMR110C
  The level of expressed mRNA in the presence of chemical substance/The level of expressed mRNA in the absence of chemical substance: 1.6
Yeast gene YMR214W
  The level of expressed mRNA in the presence of chemical substance/The level of expressed mRNA in the absence of chemical substance: 1.0
Yeast gene YMR219W
  The level of expressed mRNA in the presence of chemical substance/The level of expressed mRNA in the absence of chemical substance: 0.9
Yeast gene YMR226C
  The level of expressed mRNA in the presence of chemical substance/The level of expressed mRNA in the absence of chemical substance: 2.2
Yeast gene YMR255W
  The level of expressed mRNA in the presence of chemical substance/The level of expressed mRNA in the absence of chemical substance: 2.4
Yeast gene YMR275C
  The level of expressed mRNA in the presence of chemical substance/The level of expressed mRNA in the absence of chemical substance: 2.1
Yeast gene YMR276W
  The level of expressed mRNA in the presence of chemical substance/The level of expressed mRNA in the absence of chemical substance: 1.7
Yeast gene YMR297W
  The level of expressed mRNA in the presence of chemical substance/The level of expressed mRNA in the absence of chemical substance: 1.0
